We go through 13 compounds from DBAASP.

Structures are written as SMILES. ≈ marks a conversion by molar mass, not a printed value.

What all share (assay): ≥ marks a high value that may be exact or a test limit, other limits are often not marked, values filed in µg/mL are converted to µM
The test system of assay [1] is Bacillus subtilis ATCC 23857.
The subject of assay [2] is Klebsiella pneumoniae ATCC 700603.
Assay [3] concerns Acinetobacter baumannii ATCC 19606.
Assay [4] has as its system Staphylococcus aureus ATCC 25923.
Assay [5] concerns Enterococcus faecalis ATCC 29212.
Assay [6] has as its system Pseudomonas aeruginosa ATCC 27853.
Assay [7] has as its system Staphylococcus epidermidis ATCC 12228.
Assay [8] deals with Escherichia coli ATCC 25922.
Assay [9] deals with Candida albicans.
Assay [10] relates to Pseudomonas aeruginosa H103.
For assay [11], the system named is Escherichia coli UB1005.
The subject of assay [12] is Staphylococcus epidermidis.
In assay [13] the test system is Salmonella enterica serovar Typhimurium.
The subject of assay [14] is Bacillus subtilis 168.
Assay [15] deals with Escherichia coli K-12.
In assay [16] the test system is Pseudomonas aeruginosa PAO1.
Assay [17] relates to Staphylococcus aureus USA 300.
The test system of assay [18] is Pseudomonas aeruginosa ATCC 9027.

Take `CC(C)C[C@H](NC(=O)[C@H](C)NC(=O)[C@@H](NC(=O)[C@H](CCCCN)NC(=O)[C@H](C)NC(=O)[C@H](CCCN=C(N)N)NC(=O)[C@H](CCCCN)NC(=O)[C@H](C)NC(=O)[C@H](C)NC(=O)CN)[C@@H](C)O)C(N)=O` [GAAKRAKTAL]: the MIC in assay [1] was not below 512 µM; in [2], more than 512 µM; in [3], more than 512 µM; in assay [4] it was more than 512 µM; in assay [5], more than 512 µM; in assay [6], more than 512 µM. Further, the minimum inhibitory concentration (MIC) in assay [7] and in assay [8] was more than 512 µM throughout.

Consider `CC(C)C[C@H](NC(=O)[C@H](Cc1ccccc1)NC(=O)CN)C(=O)N[C@@H](CCCCN)C(=O)N[C@@H](CCCN=C(N)N)C(=O)N[C@@H](Cc1ccccc1)C(=O)N[C@@H](CCCCN)C(=O)N[C@H](C(=O)N[C@@H](CC(C)C)C(=O)N[C@@H](Cc1ccccc1)C(N)=O)[C@@H](C)O` [GFLKRFKTLF], for which the minimal inhibitory concentration (MIC) was not below 64 µM in assay [1]; 128 µM (≈ 161 µg/mL) in assay [2]; 128 µM (≈ 161 µg/mL) in [3]; 64 µM (≈ 80.4 µg/mL) in assay [4]; 128 µM (≈ 161 µg/mL) in [5]; 8 µM (≈ 10 µg/mL) in [6]. Further, the results for the MIC in [7] and in [8] were 8 µM (≈ 10 µg/mL) and 64 µM (≈ 80.4 µg/mL), respectively.

For `CC[C@H](C)[C@H](NC(=O)CN)C(=O)N[C@H](C(=O)N[C@@H](C)C(=O)NCC(=O)N[C@H](C(=O)N[C@H](C(=O)N[C@@H](CCCCN)C(=O)N[C@H](C(=O)N[C@H](C(=O)N[C@@H](CCCCN)C(=O)N[C@@H](C)C(N)=O)[C@@H](C)CC)[C@@H](C)CC)[C@@H](C)CC)[C@@H](C)CC)[C@@H](C)CC` [GIIAGIIKIIKA], the figures for the minimal inhibitory concentration (MIC) in assay [1] and in assay [8] were 16 µM (≈ 19.3 µg/mL) and more than 128 µM, respectively.

As to `CC[C@H](C)[C@H](NC(=O)[C@H](CCCN=C(N)N)NC(=O)[C@H](C)NC(=O)[C@H](CC(C)C)NC(=O)CN)C(=O)N[C@H](C(=O)N[C@H](C(=O)N[C@H](C(=O)N[C@@H](CCCN=C(N)N)C(=O)N[C@H](C(=O)N[C@@H](C)C(=O)N[C@@H](CCCN=C(N)N)C(N)=O)C(C)C)[C@@H](C)CC)C(C)C)C(C)C` [GLARIVVIRVAR], the MIC in assay [9] was 94.5 µM (≈ 125 µg/mL); in assay [10], not below 94.5 µM; in assay [11] it was 12.1 µM (≈ 16 µg/mL); in [4], 47.6 µM (≈ 63 µg/mL); in [5], 23.4 µM (≈ 31 µg/mL); in assay [12], 12.1 µM (≈ 16 µg/mL). Further, the minimal inhibitory concentration (MIC) in assay [13] is not below 47.6 µM.

For `CC(C)C[C@H](NC(=O)[C@H](CC(C)C)NC(=O)[C@@H](NC(=O)[C@H](CCCCN)NC(=O)[C@H](Cc1c[nH]c2ccccc12)NC(=O)[C@H](CCCN=C(N)N)NC(=O)[C@H](CCCCN)NC(=O)[C@H](CC(C)C)NC(=O)[C@H](CC(C)C)NC(=O)CN)[C@@H](C)O)C(N)=O` [GLLKRWKTLL], the MIC is not below 128 µM in [1]; 64 µM (≈ 78.5 µg/mL) in assay [2]; 256 µM (≈ 314 µg/mL) in assay [3]; 128 µM (≈ 157 µg/mL) in assay [4]; 256 µM (≈ 314 µg/mL) in [5]; 4 µM (≈ 4.91 µg/mL) in assay [6]. Further, the MIC in assay [7] is 16 µM (≈ 19.6 µg/mL); in assay [8] it was 64 µM (≈ 78.5 µg/mL).

Take `CC[C@H](C)[C@H](N)C(=O)N[C@@H](CC(C)C)C(=O)N[C@@H](CCCN=C(N)N)C(=O)N[C@@H](Cc1c[nH]c2ccccc12)C(=O)N[C@@H](CCCCN)C(=O)N[C@@H](Cc1c[nH]c2ccccc12)C(=O)N[C@@H](CCCN=C(N)N)C(=O)N[C@@H](Cc1c[nH]c2ccccc12)C(=O)N[C@@H](Cc1c[nH]c2ccccc12)C(=O)N[C@@H](CCCN=C(N)N)C(=O)N[C@@H](Cc1c[nH]c2ccccc12)C(=O)N[C@@H](CCCN=C(N)N)C(=O)N[C@@H](CCCN=C(N)N)C(=O)O` [ILRWKWRWWRWRR]: the MIC in assay [9] worked out at 5.7 µM (≈ 11.9 µg/mL); in [10] it was 5.7 µM (≈ 11.9 µg/mL); in [11], 1.4 µM (≈ 2.92 µg/mL); in [4] it was 0.7 µM (≈ 1.46 µg/mL); in assay [5], 2.9 µM (≈ 6.05 µg/mL); in assay [12], 0.7 µM (≈ 1.46 µg/mL). Also, the MIC in assay [13] is 2.9 µM (≈ 6.05 µg/mL).

Turning to `CC[C@H](C)[C@H](N)C(=O)N[C@@H](Cc1c[nH]c2ccccc12)C(=O)N[C@@H](CC(C)C)C(=O)N[C@H](C(=O)N[C@@H](C)C(=O)N[C@@H](CC(C)C)C(=O)N[C@@H](CCCCN)C(=O)N[C@@H](Cc1ccccc1)C(=O)N[C@@H](CC(C)C)C(=O)NCC(=O)N[C@@H](CCCCN)C(=O)N[C@@H](Cc1cnc[nH]1)C(=O)N[C@@H](C)C(=O)N[C@@H](C)C(=O)N[C@@H](CCCCN)C(=O)N[C@@H](Cc1cnc[nH]1)C(=O)N[C@@H](CC(C)C)C(=O)N[C@@H](C)C(=O)N[C@@H](CCCCN)C(=O)N[C@@H](CCC(N)=O)C(=O)N[C@@H](CCC(N)=O)C(=O)N[C@@H](CC(C)C)C(=O)N[C@@H](CO)C(=O)N[C@@H](CCCCN)C(=O)N[C@@H](CC(C)C)C(=O)O)[C@@H](C)O` [IWLTALKFLGKHAAKHLAKQQLSKL], the MIC in assay [14] was 6.25 µM (≈ 17.8 µg/mL); in [15] it was 25 µM (≈ 71.1 µg/mL); in assay [16], 25 µM (≈ 71.1 µg/mL); in assay [17] it was 3.1 µM (≈ 8.82 µg/mL).

With `NCCCC[C@H](NC(=O)[C@H](Cc1ccccc1)NC(=O)[C@H](CCCN=C(N)N)NC(=O)[C@H](CCCCN)NC(=O)[C@H](CCCCN)NC(=O)[C@H](CCCN=C(N)N)NC(=O)[C@@H](N)CCCCN)C(=O)N[C@@H](Cc1c[nH]c2ccccc12)C(=O)N[C@@H](Cc1c[nH]c2ccccc12)C(=O)O` [KRKKRFKWW], the minimum inhibitory concentration (MIC) in assay [9] was 41.2 µM (≈ 56.1 µg/mL); in assay [10], not below 115 µM; in assay [11], 20.6 µM (≈ 28.1 µg/mL); in assay [4] it was 2.6 µM (≈ 3.54 µg/mL); in assay [5], 10.3 µM (≈ 14 µg/mL); in [12] it was 2.6 µM (≈ 3.54 µg/mL). Also, the MIC in [13] came to 20.6 µM (≈ 28.1 µg/mL).

As to `CC(C)C[C@H](NC(=O)[C@H](CC(C)C)NC(=O)[C@H](CCCCN)NC(=O)[C@@H]1CCCN1C(=O)[C@H](CC(C)C)NC(=O)[C@H](CC(C)C)NC(=O)[C@H](CCCCN)NC(=O)[C@H](CC(C)C)NC(=O)[C@H](CC(C)C)NC(=O)[C@H](CO)NC(=O)CNC(=O)[C@H](CC(C)C)NC(=O)[C@@H](N)CC(C)C)C(N)=O` [LLGSLLKLLPKLL], the MIC in assay [14] is 3.12 µM (≈ 4.43 µg/mL); in assay [15] it was 12.5 µM (≈ 17.7 µg/mL); in assay [16], more than 100 µM; in [17] it was 1.1 µM (≈ 1.57 µg/mL).

With `CC[C@H](C)[C@H](NC(=O)[C@H](CCCCN)NC(=O)[C@H](C)NC(=O)[C@H](C)NC(=O)[C@@H](NC(=O)[C@H](C)NC(=O)[C@H](CC(C)C)NC(=O)[C@H](CC(C)C)NC(=O)[C@H](C)NC(=O)[C@H](CCCCN)NC(=O)[C@H](CC(C)C)NC(=O)[C@H](CC(N)=O)NC(=O)[C@@H](N)CC(C)C)C(C)C)C(=O)N[C@@H](CC(C)C)C(N)=O` [LNLKALLAVAAKIL], the MIC in [1] came to 16 µM (≈ 23.2 µg/mL); in [2], 32 µM (≈ 46.4 µg/mL); in [18] it was 32 µM (≈ 46.4 µg/mL); in assay [4] it was 4 µM (≈ 5.8 µg/mL); in [8], 8 µM (≈ 11.6 µg/mL).

For `CC[C@H](C)[C@H](NC(=O)[C@H](CCCCN)NC(=O)[C@H](CCCCN)NC(=O)[C@H](C)NC(=O)[C@@H](NC(=O)[C@H](C)NC(=O)[C@H](CC(C)C)NC(=O)[C@H](CC(C)C)NC(=O)[C@H](CCCCN)NC(=O)[C@H](CCCCN)NC(=O)[C@H](CC(C)C)NC(=O)[C@H](CC(N)=O)NC(=O)[C@@H](N)CC(C)C)C(C)C)C(=O)N[C@@H](CC(C)C)C(N)=O` [LNLKKLLAVAKKIL], the MIC was 2 µM (≈ 3.13 µg/mL) in assay [1]; 4 µM (≈ 6.26 µg/mL) in assay [2]; 4 µM (≈ 6.26 µg/mL) in assay [18]; 8 µM (≈ 12.5 µg/mL) in assay [4]; 4 µM (≈ 6.26 µg/mL) in assay [8].

`CC[C@H](C)[C@H](NC(=O)[C@@H](NC(=O)[C@H](C)NC(=O)[C@@H](NC(=O)[C@H](C)NC(=O)[C@@H](N)CCCN=C(N)N)C(C)C)C(C)C)C(=O)N[C@H](C(=O)N[C@@H](CCCN=C(N)N)C(=O)N[C@@H](CC(C)C)C(=O)N[C@@H](CCCN=C(N)N)C(=O)N[C@@H](CCCN=C(N)N)C(=O)N[C@H](C(N)=O)C(C)C)[C@@H](C)CC` [RAVAVIIRLRRV]: the minimum inhibitory concentration (MIC) is 4.22 µM (≈ 6 µg/mL) in [9]; 16.2 µM (≈ 23 µg/mL) in assay [10]; 7.74 µM (≈ 11 µg/mL) in assay [11]; 16.2 µM (≈ 23 µg/mL) in assay [4]; 4.22 µM (≈ 6 µg/mL) in [12]; 7.74 µM (≈ 11 µg/mL) in [13].

Turning to `CC[C@H](C)[C@H](NC(=O)[C@H](CCCN=C(N)N)NC(=O)[C@H](CCCN=C(N)N)NC(=O)[C@H](CCCN=C(N)N)NC(=O)[C@H](CCCN=C(N)N)NC(=O)[C@@H](NC(=O)[C@@H](N)C(C)C)[C@@H](C)CC)C(=O)N[C@@H](CC(C)C)C(=O)N[C@@H](C)C(=O)N[C@@H](C)C(=O)N[C@H](C(=O)N[C@H](C(N)=O)C(C)C)C(C)C` [VIRRRRILAAVV], the minimal inhibitory concentration (MIC) was 95.7 µM (≈ 136 µg/mL) in assay [9]; not below 176 µM in assay [10]; not below 95.7 µM in assay [11]; 176 µM (≈ 250 µg/mL) in [4]; not below 95.7 µM in [12]; not below 95.7 µM in assay [13].

As a reminder, the MIC is the lowest concentration found to suppress growth.
